Data: patent publication US11814376B2, “Hepatitis b core protein modulators” (Assembly Biosciences, Inc., priority 2015, dated 2023)
Counter-ions that a name gives are not always drawn.

How the values were obtained:
[1] = system: HBV viral load in AD38 cells; test: Viral load production in AD38 cells, quantitative PCR of the core sequence in supernatant; type: cell-based; details: 10 μM compound, 6 days at 37° C., supernatant qPCR, relative to DMSO control; for activity at 10 µM: Hepatitis B virus, 144 h, read-out: AD38 Viral Load (%) (VL with cmpd/VL in DMSO control) at 10 μM
AD38 cells = test: Viability of AD38 cells (Promega CellTiter-Glo); type: cell-based; details: 10 μM compound, 6 days, CellTiter-Glo luminescence normalized to DMSO control (100%)
Summary of the method: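 AD38 cells were seeded at 50,000/well on collagen-coated plates and treated with compound added as a 10× solution in 10% DMSO for 6 days at 37° C. Viability was measured by CellTiter-Glo luminescence in tetracycline-free medium with 2% FBS and 1% DMSO, and expressed as percent of DMSO control.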

Row | SMILES | activity at 10 µM [1] | AD38 Viability Normalized Result (cmpd/DMSO %) at 10 μM (AD38 cells) | AD38 Viral Load (%) (VL with cmpd/VL in DMSO control) at 10 μM [1]
1 | O=C(NCc1cnc(-c2ccc(O)cc2)s1)c1ccc2c(c1)NC(=O)c1ccccc1S2(=O)=O [compound 1595, N-((2-(4-hydroxyphenyl)thiazol-5-yl)methyl)-11-oxo-10, 11-dihydrodibenzo [b, f] [1, 4] thiazepine-8-carboxamide 5,5-dioxide] | 0.3% | 109% | 
2 | O=C(NCc1cnc(C(F)(F)F)s1)c1cc2c(cc1C(F)(F)F)S(=O)(=O)c1ccccc1C(=O)N2 [compound 1936] | 13.5% | 94% | 
3 | O=C(NCc1cnc(-n2ccnn2)s1)c1ccc2c(c1)NC(=O)c1ccccc1S2(=O)=O [compound 11047] | 1.4% | 96% | 
4 | CCN(CC)CCCCc1cnn(-c2ncc(CNC(=O)c3ccc4c(c3)NC(=O)c3ccccc3S4(=O)=O)s2)c1 [compound 11100] | 6.8% | 102% | 
5 | O=C(NCc1cnc(-c2ccc(N3CCCC3=O)cc2)s1)c1ccc2c(c1)NC(=O)c1ccccc1S2(=O)=O [compound 1858] | 0.7% | 103% | 
6 | O=C(NCc1cnc(-c2ccccc2CO)s1)c1ccc2c(c1)NC(=O)c1ccccc1S2(=O)=O [compound 1838] | 1.4% | 113% | 
7 | Nc1ccnc(-c2ncc(CNC(=O)c3ccc4c(c3)NC(=O)c3ccccc3S4(=O)=O)s2)c1 [compound 1888, N-((2-(4-aminopyridin-2-yl)thiazol-5-yl)methyl)-11-oxo-10,11-dihydrodibenzo [b, f] [1, 4] thiazepine-8-carboxamide 5,5-dioxide, TFA salt] | 1.2% | 100% | 
8 | Cc1cc(-c2ncc(CNC(=O)c3ccc4c(c3)NC(=O)c3ccccc3S4(=O)=O)s2)ccc1O [compound 1804, N-((2-(4-hydroxy-3-methylphenyl)thiazol-5-yl)methyl)-11-oxo-10, 11-dihydrodibenzo [b, f] [1, 4] thiazepine-8-carboxamide 5,5-dioxide] | 0.5% | 103% | 
9 | CN(CCCCc1ccc(-c2ncc(CNC(=O)c3ccc4c(c3)NC(=O)c3ccccc3S4(=O)=O)s2)cc1)C1CC1 [compound 11094] | 0.6% | 94% | 
10 | Cc1cc(-c2ncc(CNC(=O)c3ccc4c(c3)NC(=O)c3ccccc3O4)s2)cc(C)c1O [compound 1738, N-((2-(4-hydroxy-3,5-dimethylphenyl)thiazol-5-yl)methyl)-11-oxo-10, 11-dihydrodibenzo [b, f] [1, 4] oxazepine-8-carboxamide] | 2.9% | 93% | 
11 | O=C(NCc1cnc(-c2ccc([N+](=O)[O-])cc2)s1)c1ccc2c(c1)NC(=O)c1ccccc1S2(=O)=O [1645-A] | 0.3% | 98% | 
12 | NC(=O)c1ccc(-c2ncc(CNC(=O)c3ccc4c(c3)NC(=O)c3ccccc3O4)s2)cc1 [compound 1770, N-((2-(4-carbamoylphenyl)thiazol-5-yl)methyl)-11-oxo-10, 11-dihydrodibenzo [b, f] [1, 4] oxazepine-8-carboxamide] | 32.5% | 77% | 
13 | CN(C)CCSc1ncc(CNC(=O)c2ccc3c(c2)NC(=O)c2ccccc2S3(=O)=O)s1 [compound 1590] | 6.2% | 95% | 
14 | CN(C)CCCOc1ncc(CNC(=O)c2ccc3c(c2)NC(=O)c2ccccc2S3(=O)=O)s1 [compound 1680, N-((2-(3-(dimethylamino)propoxy)thiazol-5-yl)methyl)-11-oxo-10, 11-dihydrodibenzo [b, f] [1, 4] thiazepine-8-carboxamide 5,5-dioxide] | 15% | 94% | 
15 | O=C(NCc1cnc(C(F)(F)F)s1)c1cc2c(cc1Cl)S(=O)(=O)c1ccccc1C(=O)N2 [compound 1934] | 40% | 69% | 
16 | CN(C)CCCOc1ncc(CN(C)C(=O)c2ccc3c(c2)NC(=O)c2ccccc2O3)s1 [compound 1687, N-((2-(3-(dimethylamino)propoxy)thiazol-5-yl)methyl)-N-methyl-11-oxo-10, 11-dihydrodibenzo [b, f] [1, 4] oxazepine-8-carboxamide] | 49.2% | 102% | 
17 | CCN(CC)CCCCc1ccc(-c2ncc(CNC(=O)c3ccc4c(c3)NC(=O)c3ccccc3S4(=O)=O)s2)cc1 [compound 11053] | 3.6% | 104% | 
18 | O=C(O)CNc1ncc(CNC(=O)c2ccc3c(c2)NC(=O)c2ccccc2O3)s1 [compound 1615, (5-((11-oxo-10, 11-dihydrodibenzo [b, f] [1, 4]oxazepine-8-carboxamido)methyl)thiazol-2-yl) glycine] | 54.9% | 103% | 
19 | O=C(O)c1ccc(-c2ncc(CNC(=O)c3ccc4c(c3)NC(=O)c3ccccc3O4)s2)cc1 [compound 1612, 4-(5-((11-oxo-10, 11-dihydrodibenzo [b, f] [1, 4]oxazepine-8-carboxamido)methyl)thiazol-2-yl) benzoic acid] | 6.9% | 105% | 

Row | SMILES | activity at 10 µM [1] | AD38 Viability Normalized Result (cmpd/DMSO %) at 10 μM (AD38 cells) | AD38 Viral Load (%) (VL with cmpd/VL in DMSO control) at 10 μM [1]
20 | Nc1ncc(CNC(=O)c2ccc3c(c2)NC(=O)c2ccccc2S3(=O)=O)s1 [compound 1529] | 2% | 97% | 
21 | Cc1c(C(=O)NCc2cnc(-c3ccc(F)cn3)s2)ccc2c1NC(=O)c1ccccc1S2(=O)=O [compound 11150] | 0.4% | 100% | 
22 | Cl.O=C(NCc1cnc(-c2ccc(OCCC3CCCN3)cc2)s1)c1ccc2c(c1)NC(=O)c1ccccc1S2(=O)=O (stereo not shown) [compound 1996, 11-oxo-N-((2-(4-(2-(pyrrolidin-2-yl)ethoxy)phenyl)thiazol-5-yl)methyl)-10, 11-dihydrodibenzo [b, f] [1, 4] thiazepine-8-carboxamide 5,5-dioxide hydrochloride] | 17.4% | 100% | 
23 | Nc1ccc(-c2ncc(CNC(=O)c3ccc4c(c3)NC(=O)c3ccccc3S4(=O)=O)s2)nc1 [compound 1886, N-((2-(5-aminopyridin-2-yl)thiazol-5-yl)methyl)-11-oxo-10, 11-dihydrodibenzo [b, f] [1, 4] thiazepine-8-carboxamide 5,5-dioxide] | 1.5% | 106% | 
24 | N#CC1(COc2ccc(-c3ncc(CNC(=O)c4ccc5c(c4)NC(=O)c4ccccc4S5(=O)=O)s3)cc2)CCC1 [compound 11182] | 0.7% | 104% | 
25 | O=C(NCc1cnc(-c2ccc(-c3cc[nH]n3)cc2)s1)c1ccc2c(c1)NC(=O)c1ccccc1S2(=O)=O [compound 1953] | 0.4% | 118% | 
26 | CN(C)CCSc1ncc(CNC(=O)c2ccc3c(c2)NC(=O)c2ccccc2S3)s1 [compound 1604] | 0.9% | 82% | 
27 | Cc1c(C(=O)NCc2cnc(-n3cccn3)s2)ccc2c1NC(=O)c1ccccc1S2(=O)=O [compound 11074] |  | 103% | 0.6%
28 | CNc1ncc(CNC(=O)c2ccc3c(c2)NC(=O)c2ccccc2S3)s1 [compound 1424] | 0.5% | 97% | 
29 | CS(=O)(=O)c1ccc(-c2ncc(CNC(=O)c3ccc4c(c3)NC(=O)c3ccccc3S4(=O)=O)s2)cc1 [compound 1855] | 2.5% | 102% | 
30 | O=C(NCc1cnc(C(F)(F)F)s1)c1ccc2c(c1)NC(=O)c1ccccc1N2CCO [compound 11078] | 45.7% | 96% | 
31 | CC(=O)NCCCOc1ccc(-c2ncc(CNC(=O)c3ccc4c(c3)NC(=O)c3ccccc3S4(=O)=O)s2)cc1 [compound 1991] | 2% | 98% | 
32 | Cc1ncc(CNC(=O)c2ccc3c(c2)NC(=O)c2ccccc2S3(=O)=O)s1 [compound 1528] | 0.8% | 76% | 
33 | COc1ccc(-c2ncc(CNC(=O)c3ccc4c(c3)NC(=O)c3ccccc3O4)s2)cc1 [compound 1619] | 1.3% | 95% | 
34 | COc1ccc(Cc2ncc(CNC(=O)c3ccc4c(c3)NC(=O)c3ccccc3S4(=O)=O)s2)cc1 [1823-A, N-((2-(4-methoxybenzyl)thiazol-5-yl)methyl)-11-oxo-10, 11-dihydrodibenzo [b, f] [1, 4] thiazepine-8-carboxamide 5,5-dioxide] | 5.8% | 92% | 
35 | O=C(NCc1cnc(-c2cc(F)ccn2)s1)c1ccc2c(c1)NC(=O)c1ccccc1S2(=O)=O [compound 11050] | 0.7% | 96% | 
36 | CN(CCCOc1ccc(-c2ncc(CNC(=O)c3ccc4c(c3)NC(=O)c3ccccc3S4(=O)=O)s2)cc1)C1CC1 [compound 11092] | 0.5% | 101% | 
37 | O=C(NCc1cnc(-c2ccc(C(=O)NC3CC3)cc2)s1)c1ccc2c(c1)NC(=O)c1ccccc1S2(=O)=O [compound 1949] | 2.9% | 99% | 
38 | O=C(NCc1cnc(-c2cnco2)s1)c1ccc2c(c1)NC(=O)c1ccccc1S2(=O)=O [compound 1957] | 1.5% | 94% | 
